Results on 23 compounds are retold here after PubChem BioAssay AID192 (DTP/NCI, 2004).

Values joined by “and” are separate entries in the source; they are usually repeats but may differ in a detail not shown here. Equal values may be shown once. Inconclusive results and toxic doses are left out.

This assay has as its system BDF1 mice, B16 melanoma ip, median survival T/C. Description: NCI In Vivo Anticancer Drug Screen. Data for tumor model B16 Melanoma (intraperitoneal) in B6D2F1 (BDF1) mice. As to conditions: endpoint: median survival time, higher = longer survival. The procedure, abridged:
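Each result divides a survival or tumor-size measurement in the compound-treated group by the same measurement in the vehicle group.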

[1] abbreviates: dose: 100.0 mg/kg/injection, schedule: Q01DX009 (ip), vehicle: Klucel (hydroxypropylcellulose) (HPC).
[2] abbreviates: dose: 100.0 mg/kg/injection, schedule: Q01DX009 (ip), vehicle: saline with Tween-80.
The mark [3] stands for this setting: dose: 12.5 mg/kg/injection, schedule: Q01DX009 (ip), vehicle: saline.
Where [4] appears, read: dose: 25.0 mg/kg/injection, schedule: Q01DX009 (ip), vehicle: saline.
Where [5] appears, read: dose: 50.0 mg/kg/injection, schedule: Q01DX009 (ip), vehicle: saline.
Setting [6] is: dose: 12.5 mg/kg/injection, schedule: Q01DX009 (ip), vehicle: saline with Tween-80.
The mark [7] stands for this setting: dose: 25.0 mg/kg/injection, schedule: Q01DX009 (ip), vehicle: saline with Tween-80.
Setting [8] is: dose: 25.0 mg/kg/injection, schedule: Q01DX009 (ip), vehicle: Klucel (hydroxypropylcellulose) (HPC).
Where [9] appears, read: dose: 50.0 mg/kg/injection, schedule: Q01DX009 (ip), vehicle: Klucel (hydroxypropylcellulose) (HPC).
Where [10] appears, read: dose: 50.0 mg/kg/injection, schedule: Q01DX009 (ip), vehicle: saline with Tween-80.
Setting [11] is: dose: 100.0 mg/kg/injection, schedule: Q01DX009 (ip), vehicle: saline.

As for `C[N+]1=CN(c2ccc(Cl)cc2)Cc2cc(Cl)ccc21`, the T/C reads like this: under setting [1], 88 % of control; (dose: 100.0 mg/kg/injection, schedule: Q04DX003 (ip), vehicle: Klucel (hydroxypropylcellulose) (HPC)) 88 % of control; (dose: 200.0 mg/kg/injection, schedule: Q01DX009 (ip), vehicle: Klucel (hydroxypropylcellulose) (HPC)) 86 % of control; (dose: 200.0 mg/kg/injection, schedule: Q04DX003 (ip), vehicle: Klucel (hydroxypropylcellulose) (HPC)) 102 % of control; (dose: 400.0 mg/kg/injection, schedule: Q01DX009 (ip), vehicle: Klucel (hydroxypropylcellulose) (HPC)) 102 % of control; (dose: 400.0 mg/kg/injection, schedule: Q04DX003 (ip), vehicle: Klucel (hydroxypropylcellulose) (HPC)) 100 % of control.

For the compound `CN1CCC23c4ccccc4NC1C21CCN(C)C3Nc2ccccc21`, the T/C by setting is: (dose: 1.87 mg/kg/injection, schedule: Q01DX009 (ip), vehicle: saline) 107 % of control; (dose: 3.75 mg/kg/injection, schedule: Q01DX009 (ip), vehicle: saline) 107 % of control; (dose: 7.5 mg/kg/injection, schedule: Q01DX009 (ip), vehicle: saline) 109 % of control.

As to `OCCN(CCO)CN(CO)c1nc(N(CO)CN(CCO)CCO)nc(N(CO)CN(CCO)CCO)n1`, the T/C (dose: 100.0 mg/kg/injection, schedule: Q04DX003 (ip), vehicle: saline) was 120 % of control; the T/C (dose: 200.0 mg/kg/injection, schedule: Q04DX003 (ip), vehicle: saline) was 123 % of control; the T/C (dose: 400.0 mg/kg/injection, schedule: Q04DX003 (ip), vehicle: saline) was 112 % of control.

`COC(=O)C1=C(N)CCc2ccccc21`: the T/C was 90 % of control under setting [2] and 95 % of control (dose: 200.0 mg/kg/injection, schedule: Q01DX009 (ip), vehicle: saline with Tween-80).

`NC(Cc1c[nH]c2ccc(N(CCCl)CCCl)cc12)C(=O)O` (configuration not stated): the T/C (dose: 0.25 mg/kg/injection, schedule: Q01DX009 (ip), vehicle: saline with Tween-80) is 159 % of control; the T/C (dose: 0.5 mg/kg/injection, schedule: Q01DX009 (ip), vehicle: saline with Tween-80) is 163 % of control and 185 % of control; the T/C (dose: 1.0 mg/kg/injection, schedule: Q01DX009 (ip), vehicle: saline with Tween-80) is 180 % of control and 226 % of control; the T/C (dose: 2.0 mg/kg/injection, schedule: Q01DX009 (ip), vehicle: saline with Tween-80) was 184 % of control.

With `Nc1ccc2ncccc2c1`, the T/C under setting [3] was 111 % of control, the T/C under setting [4] was 105 % of control and the T/C under setting [5] was 109 % of control.

On to `O=C1N=C(Oc2ccccc2)SC1=O`, for which the T/C reads like this: under setting [6], 101 % of control; under setting [7], 96 % of control.

With `Cc1ccc(CO)cc1C`, the T/C is, setting by setting: (dose: 50.0 mg/kg/injection, schedule: Q04DX003 (ip), vehicle: saline with Tween-80) 100 % of control; (dose: 100.0 mg/kg/injection, schedule: Q04DX003 (ip), vehicle: saline with Tween-80) 102 % of control; (dose: 200.0 mg/kg/injection, schedule: Q04DX003 (ip), vehicle: saline with Tween-80) 104 % of control.

With `CN1CCCN(C(c2ccccc2)c2ccc(Cl)cc2)CC1` (configuration not stated), the T/C (dose: 1.95 mg/kg/injection, schedule: Q01DX009 (ip), vehicle: saline) was 92 % of control; the T/C (dose: 3.9 mg/kg/injection, schedule: Q01DX009 (ip), vehicle: saline) is 105 % of control; the T/C (dose: 7.81 mg/kg/injection, schedule: Q01DX009 (ip), vehicle: saline) is 105 % of control; the T/C (dose: 15.62 mg/kg/injection, schedule: Q01DX009 (ip), vehicle: saline) is 97 % of control; the T/C (dose: 31.25 mg/kg/injection, schedule: Q01DX009 (ip), vehicle: saline) is 94 % of control.

Take `Clc1ccc(NC2=NCCCS2)c2ccccc12`: the T/C was 105 % of control under setting [8], 92 % of control under setting [9] and 95 % of control under setting [1].

Take `CC1(C)N=C(N)N=C(N)N1c1ccc(OCCCCNC(=O)c2ccc(S(=O)(=O)F)cc2)c(Cl)c1`: the T/C is, setting by setting: under setting [6], 108 % of control; under setting [7], 112 % of control; under setting [10], 111 % of control; under setting [2], 112 % of control.

Take `O=C(O)CSc1nc(-c2ccccc2)c(-c2ccccc2)n1-c1ccccn1`: the T/C was 98 % of control (dose: 12.5 mg/kg/injection, schedule: Q01DX009 (ip), vehicle: water); 97 % of control (dose: 25.0 mg/kg/injection, schedule: Q01DX009 (ip), vehicle: water); 98 % of control (dose: 50.0 mg/kg/injection, schedule: Q01DX009 (ip), vehicle: water); 98 % of control (dose: 100.0 mg/kg/injection, schedule: Q01DX009 (ip), vehicle: water).

Regarding `O=C(CCl)Nc1nccs1`, the T/C reads like this: under setting [6], 103 % of control; under setting [7], 100 % of control; under setting [10], 93 % of control; under setting [2], 87 % of control.

Consider `CC1(C)C2CCC([CH2][Hg][Cl])C1C2` (configuration not stated), for which the T/C (dose: 2.5 mg/kg/injection, schedule: Q01DX009 (ip), vehicle: saline with Tween-80) is 87 % of control; the T/C (dose: 5.0 mg/kg/injection, schedule: Q01DX009 (ip), vehicle: saline with Tween-80) was 103 % of control; the T/C (dose: 10.0 mg/kg/injection, schedule: Q01DX009 (ip), vehicle: saline with Tween-80) was 87 % of control; the T/C (dose: 20.0 mg/kg/injection, schedule: Q01DX009 (ip), vehicle: saline with Tween-80) is 96 % of control.

For the compound `O=C(O)CCc1cccnc1`, the T/C was 104 % of control under setting [5]; 107 % of control under setting [11]; 106 % of control (dose: 200.0 mg/kg/injection, schedule: Q01DX009 (ip), vehicle: saline); 107 % of control (dose: 400.0 mg/kg/injection, schedule: Q01DX009 (ip), vehicle: saline).

Regarding `CCc1ccc(NC(=O)C(c2ccccc2)c2ccccc2)cc1`, the T/C under setting [6] is 89 % of control and the T/C under setting [7] was 86 % of control.

On to `COc1c(Cl)cc2c(c1OC)N(C)C1N3C(=O)C4(C)SSC3(C(=O)N4C)C(O)C21O` (configuration not stated), for which the T/C (dose: 0.12 mg/kg/injection, schedule: Q01DX009 (ip), vehicle: Klucel (hydroxypropylcellulose) (HPC)) is 103 % of control and the T/C (dose: 0.25 mg/kg/injection, schedule: Q01DX009 (ip), vehicle: Klucel (hydroxypropylcellulose) (HPC)) is 106 % of control.

On to `COc1ccc([I+]c2ccccc2)cc1`, for which the T/C by setting is: (dose: 0.75 mg/kg/injection, schedule: Q01DX009 (ip), vehicle: saline with Tween-80) 95 % of control; (dose: 1.5 mg/kg/injection, schedule: Q01DX009 (ip), vehicle: saline with Tween-80) 97 % of control; (dose: 3.0 mg/kg/injection, schedule: Q01DX009 (ip), vehicle: saline with Tween-80) 102 % of control; (dose: 6.0 mg/kg/injection, schedule: Q01DX009 (ip), vehicle: saline with Tween-80) 93 % of control.

Take `O=C(O)C(CSC(c1ccccc1)(c1ccccc1)c1ccccc1)N=Cc1cccs1` (configuration not stated): the T/C by setting is: under setting [3], 117 % of control; under setting [4], 122 % of control.

As for `C=Cc1c(C)c2cc3[nH]c(cc4nc(cc5nc(cc1[nH]2)C(C)=C5CCC(=O)O)C(CCC(=O)O)=C4C)c(C)c3C=C`, the T/C was 97 % of control (dose: 6.25 mg/kg/injection, schedule: Q01DX009 (ip), vehicle: Klucel (hydroxypropylcellulose) (HPC)); 104 % of control (dose: 12.5 mg/kg/injection, schedule: Q01DX009 (ip), vehicle: Klucel (hydroxypropylcellulose) (HPC)); 104 % of control under setting [8]; 101 % of control under setting [9].

`Cc1ccc(Cl)cc1NC(=O)c1ccccc1`: the T/C runs as follows: (dose: 75.0 mg/kg/injection, schedule: Q01DX009 (ip), vehicle: Klucel (hydroxypropylcellulose) (HPC)) 93 % of control; (dose: 150.0 mg/kg/injection, schedule: Q01DX009 (ip), vehicle: Klucel (hydroxypropylcellulose) (HPC)) 104 % of control; (dose: 300.0 mg/kg/injection, schedule: Q01DX009 (ip), vehicle: Klucel (hydroxypropylcellulose) (HPC)) 105 % of control.

Take `Cc1ccc(NC(=O)Nc2ccccc2Cl)cc1`: the T/C (dose: 100.0 mg/kg/injection, schedule: Q01DX009 (ip), vehicle: gum acacia) is 89 % of control.

On to `CCC(=O)OC1(c2ccccc2)CCN(C)C1C` (configuration not stated), for which the T/C (dose: 6.25 mg/kg/injection, schedule: Q01DX009 (ip), vehicle: saline) was 102 % of control; the T/C under setting [3] is 102 % of control; the T/C under setting [4] is 95 % of control; the T/C under setting [5] was 97 % of control; the T/C under setting [11] was 90 % of control.
